Legend:
Assay in all cases: viability relative to DMSO control (fraction); higher = less drug effect (more viable cells)
Details in all cases: 48 h
Chlorambucil = compound: O=C(O)CCCc1ccc(N(CCCl)CCCl)cc1 [Chlorambucil]
Summary of the method: (§1)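 Compounds were pre-plated at five concentrations, one well each, in 384-well plates, and primary mononuclear tumour cells were plated on them at 4 × 10^4 cells per well. The cells, fresh or cryopreserved, had been Ficoll-isolated from blood or bone marrow or taken from processed lymph node. After 48 h at 37 °C and 5% CO2 in RPMI-1640 with penicillin/streptomycin, L-glutamine and human serum, viability was read as CellTiter-Glo luminescence relative to the median of 16 inner DMSO wells.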

Vindesine = compound: CC[C@]1(O)C[C@@H]2CN(CCc3c([nH]c4ccccc34)[C@@](C(=O)OC)(c3cc4c(cc3OC)N(C)[C@H]3[C@@](O)(C(N)=O)[C@H](O)[C@]5(CC)C=CCN6CC[C@]43[C@@H]65)C2)C1 [Vindesine]
Summary of the method: as §1

Barasertib = compound: CCN(CCCOc1ccc2c(Nc3cc(CC(=O)Nc4cccc(F)c4)[nH]n3)ncnc2c1)CCOP(=O)(O)O [Barasertib]
Summary of the method: as §1

SGC 0946 = compound: CC(C)N(CCCNC(=O)Nc1ccc(C(C)(C)C)cc1)C[C@H]1O[C@@H](n2cc(Br)c3c(N)ncnc32)[C@H](O)[C@@H]1O [SGC 0946]
Summary of the method: as §1

Entospletinib = compound: c1cn2cc(-c3ccc4cn[nH]c4c3)nc(Nc3ccc(N4CCOCC4)cc3)c2n1 [Entospletinib]
Summary of the method: as §1

[1] = compound: O=C(NO)c1cccc(C(=O)NCCc2ccccc2)c1
Summary of the method: as §1

Bendamustine = compound: Cn1c(CCCC(=O)O)nc2cc(N(CCCl)CCCl)ccc21 [Bendamustine]
Summary of the method: as §1

Venetoclax = compound: CC1(C)CCC(CN2CCN(c3ccc(C(=O)NS(=O)(=O)c4ccc(NCC5CCOCC5)c([N+](=O)[O-])c4)c(Oc4cnc5[nH]ccc5c4)c3)CC2)=C(c2ccc(Cl)cc2)C1 [Venetoclax]
Summary of the method: as §1

[2] = compound: C[C@H]1C[C@@H](n2c(Nc3ccc(OC(F)(F)F)cc3)nc3cc(CCC(=O)O)ccc32)CC(C)(C)C1
Summary of the method: as §1

Midostaurin hydrate = compound: CO[C@@H]1[C@H](N(C)C(=O)c2ccccc2)C[C@H]2O[C@]1(C)n1c3ccccc3c3c4c(c5c6ccccc6n2c5c31)C(=O)NC4 [Midostaurin hydrate]
Summary of the method: as §1

Selinexor = compound: O=C(/C=C\n1cnc(-c2cc(C(F)(F)F)cc(C(F)(F)F)c2)n1)NNc1cnccn1 [Selinexor]
Summary of the method: as §1

[3] = compound: O=C(Nc1ccc2[nH]nc(-c3ccncc3)c2c1)[C@@H]1CCN(CC(=O)N2CCN(c3ccc(-c4ncccn4)cc3)CC2)C1
Summary of the method: as §1

EPZ-6438 = compound: CCN(c1cc(-c2ccc(CN3CCOCC3)cc2)cc(C(=O)NCc2c(C)cc(C)[nH]c2=O)c1C)C1CCOCC1 [EPZ-6438]
Summary of the method: as §1

[4] = compound: C[C@H](NC(=O)CCC(F)(F)F)C(=O)N[C@@H]1C(=O)N(CCO)c2ncccc2-c2ccccc21
Summary of the method: as §1

Test System: primary B-PLL patient cells (S016)
- viability (Chlorambucil; 0.032 µM): 0.939
- viability (Chlorambucil; 0.16 µM): 0.916
- viability (Chlorambucil; 0.8 µM): 0.933
- viability (Chlorambucil; 4 µM): 0.601
- viability (Chlorambucil; 20 µM): 0.088
- viability (Vindesine; 0.016 µM): 0.255
- viability (Vindesine; 0.08 µM): 0.199
- viability (Vindesine; 0.4 µM): 0.222
- viability (Vindesine; 2 µM): 0.164
- viability (Vindesine; 10 µM): 0.0777
- viability (Barasertib; 0.0008 µM): 0.883
- viability (Barasertib; 0.004 µM): 0.984
- viability (Barasertib; 0.02 µM): 0.962
- viability (Barasertib; 0.1 µM): 1.01
- viability (Barasertib; 0.5 µM): 1.03
- viability (SGC 0946; 0.024 µM): 1
- viability (SGC 0946; 0.12 µM): 1.04
- viability (SGC 0946; 0.6 µM): 0.946
- viability (SGC 0946; 3 µM): 0.922
- viability (SGC 0946; 15 µM): 0.435
- viability (Entospletinib; 0.024 µM): 0.927
- viability (Entospletinib; 0.12 µM): 0.919
- viability (Entospletinib; 0.6 µM): 0.934
- viability (Entospletinib; 3 µM): 0.947
- viability (Entospletinib; 15 µM): 0.864
- viability ([1]; 0.024 µM): 1.07
- viability ([1]; 0.12 µM): 1.03
- viability ([1]; 0.6 µM): 0.986
- viability ([1]; 3 µM): 1.05
- viability ([1]; 15 µM): 0.896
- viability (Bendamustine; 0.032 µM): 0.965
- viability (Bendamustine; 0.16 µM): 0.953
- viability (Bendamustine; 0.8 µM): 1.04
- viability (Bendamustine; 4 µM): 0.864
- viability (Bendamustine; 20 µM): 0.496
- viability (Venetoclax; 0.00064 µM): 0.981
- viability (Venetoclax; 0.0032 µM): 0.834
- viability (Venetoclax; 0.016 µM): 0.362
- viability (Venetoclax; 0.08 µM): 0.126
- viability (Venetoclax; 0.4 µM): 0.0603
- viability ([2]; 0.024 µM): 0.932
- viability ([2]; 0.12 µM): 1.22
- viability ([2]; 0.6 µM): 1.08
- viability ([2]; 3 µM): 0.967
- viability ([2]; 15 µM): 1.03
- viability (Midostaurin hydrate; 0.024 µM): 0.999
- viability (Midostaurin hydrate; 0.12 µM): 0.949
- viability (Midostaurin hydrate; 0.6 µM): 1.05
- viability (Midostaurin hydrate; 3 µM): 0.925
- viability (Midostaurin hydrate; 15 µM): 0.616
- viability (Selinexor; 0.008 µM): 0.949
- viability (Selinexor; 0.04 µM): 0.929
- viability (Selinexor; 0.2 µM): 0.822
- viability (Selinexor; 1 µM): 0.847
- viability (Selinexor; 5 µM): 0.67
- viability ([3]; 0.008 µM): 1.02
- viability ([3]; 0.04 µM): 0.919
- viability ([3]; 0.2 µM): 0.953
- viability ([3]; 1 µM): 0.94
- viability ([3]; 5 µM): 0.869
- viability (EPZ-6438; 0.024 µM): 1.21
- viability (EPZ-6438; 0.12 µM): 1.14
- viability (EPZ-6438; 0.6 µM): 1.1
- viability (EPZ-6438; 3 µM): 1.01
- viability (EPZ-6438; 15 µM): 1.06
- viability ([4]; 0.016 µM): 1.29
- viability ([4]; 0.08 µM): 1.24
- viability ([4]; 0.4 µM): 1.09
- viability ([4]; 2 µM): 1.08
- viability ([4]; 10 µM): 0.949

Test System: primary BL patient cells (S005)
- viability (Chlorambucil; 0.032 µM): 0.967
- viability (Chlorambucil; 0.16 µM): 0.887
- viability (Chlorambucil; 0.8 µM): 0.974
- viability (Chlorambucil; 4 µM): 1.02
- viability (Chlorambucil; 20 µM): 0.918
- viability (Vindesine; 0.016 µM): 0.812
- viability (Vindesine; 0.08 µM): 0.859
- viability (Vindesine; 0.4 µM): 0.903
- viability (Vindesine; 2 µM): 0.775
- viability (Vindesine; 10 µM): 0.892
- viability (Barasertib; 0.0008 µM): 1.38
- viability (Barasertib; 0.004 µM): 1.33
- viability (Barasertib; 0.02 µM): 0.929
- viability (Barasertib; 0.1 µM): 0.856
- viability (Barasertib; 0.5 µM): 0.917
- viability (SGC 0946; 0.024 µM): 1.08
- viability (SGC 0946; 0.12 µM): 1.09
- viability (SGC 0946; 0.6 µM): 0.927
- viability (SGC 0946; 3 µM): 1.01
- viability (SGC 0946; 15 µM): 0.712
- viability (Entospletinib; 0.024 µM): 1.01
- viability (Entospletinib; 0.12 µM): 0.996
- viability (Entospletinib; 0.6 µM): 1.06
- viability (Entospletinib; 3 µM): 1.08
- viability (Entospletinib; 15 µM): 0.986
- viability ([1]; 0.024 µM): 1.08
- viability ([1]; 0.12 µM): 1
- viability ([1]; 0.6 µM): 1.04
- viability ([1]; 3 µM): 1.04
- viability ([1]; 15 µM): 1.03
- viability (Bendamustine; 0.032 µM): 1.01
- viability (Bendamustine; 0.16 µM): 1.06
- viability (Bendamustine; 0.8 µM): 1.02
- viability (Bendamustine; 4 µM): 1.01
- viability (Bendamustine; 20 µM): 1.07
- viability (Venetoclax; 0.00064 µM): 0.989
- viability (Venetoclax; 0.0032 µM): 0.904
- viability (Venetoclax; 0.016 µM): 0.944
- viability (Venetoclax; 0.08 µM): 0.982
- viability (Venetoclax; 0.4 µM): 0.994
- viability ([2]; 0.024 µM): 1.38
- viability ([2]; 0.12 µM): 1.01
- viability ([2]; 0.6 µM): 0.993
- viability ([2]; 3 µM): 1.45
- viability ([2]; 15 µM): 0.977
- viability (Midostaurin hydrate; 0.024 µM): 0.905
- viability (Midostaurin hydrate; 0.12 µM): 0.92
- viability (Midostaurin hydrate; 0.6 µM): 1.02
- viability (Midostaurin hydrate; 3 µM): 0.896
- viability (Midostaurin hydrate; 15 µM): 0.77
- viability (Selinexor; 0.008 µM): 0.977
- viability (Selinexor; 0.04 µM): 0.923
- viability (Selinexor; 0.2 µM): 0.928
- viability (Selinexor; 1 µM): 0.81
- viability (Selinexor; 5 µM): 0.743
- viability ([3]; 0.008 µM): 1.02
- viability ([3]; 0.04 µM): 1.08
- viability ([3]; 0.2 µM): 1.02
- viability ([3]; 1 µM): 0.993
- viability ([3]; 5 µM): 0.935
- viability (EPZ-6438; 0.024 µM): 1.15
- viability (EPZ-6438; 0.12 µM): 1.18
- viability (EPZ-6438; 0.6 µM): 1.04
- viability (EPZ-6438; 3 µM): 1.08
- viability (EPZ-6438; 15 µM): 0.967
- viability ([4]; 0.016 µM): 1.03
- viability ([4]; 0.08 µM): 0.975
- viability ([4]; 0.4 µM): 0.916
- viability ([4]; 2 µM): 0.918
- viability ([4]; 10 µM): 0.695

From the supplement of paper PMC10733146
